# Measured values: paper PMC5607094 (Biochemical pharmacology, 2017)
# Key:
# FPR1 [1] = target: T1, FPR1 (Homo sapiens, UniProt P21462); assay: fMLF-induced Ca2+ flux in human neutrophils; assay type: cell-based
# T1 sequence (P21462 1-350): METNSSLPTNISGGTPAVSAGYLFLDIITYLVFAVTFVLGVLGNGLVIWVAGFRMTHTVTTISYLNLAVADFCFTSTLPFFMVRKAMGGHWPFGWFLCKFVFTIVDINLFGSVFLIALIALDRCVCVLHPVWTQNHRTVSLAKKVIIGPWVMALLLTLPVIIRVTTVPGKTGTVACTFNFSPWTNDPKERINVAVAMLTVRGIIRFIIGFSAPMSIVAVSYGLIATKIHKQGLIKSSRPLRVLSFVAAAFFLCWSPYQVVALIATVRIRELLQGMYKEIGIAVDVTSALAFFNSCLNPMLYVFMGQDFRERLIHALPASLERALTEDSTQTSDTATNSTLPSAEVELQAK
# human neutrophils [2] = assay: fMLF-induced neutrophil chemotaxis; assay type: cell-based; details: read-out: Chemotaxis PMN (+ fMLF) IC50
# FPR1 [3] = target: T1, FPR1; assay: fMLF-induced Ca2+ mobilization in FPR1-HL60 cells; assay type: cell-based; details: for Activity class: Active / N.A. = no activity at highest concentration tested in Ca2+ flux assay (50 µM); for FPR1 antagonist activity: fMLF-induced Ca2+ mobilization in FPR1-HL60 cells
# human neutrophils [4] = assay: fMLF-induced neutrophil adhesion to T84 epithelial cells; assay type: cell-based; details: read-out: Adhesion PMN (+ fMLF) IC50
# ERK1/2 [5] = assay: ERK1/2 phosphorylation in DMSO-differentiated neutrophil-like HL60 cells; assay type: cell-based, human; details: for Inhibition of fMLF-induced phosphorylation of ERK1/2: DMSO-differentiated HL60 cells, 10 min pretreatment, 20 nM fMLF 5 min; for Inhibition of fMLF-induced ERK phosphorylation: cell type not stated in the sentence (Discussion)
# ERK1/2 [6] = assay: ERK1/2 phosphorylation in human neutrophils; assay type: cell-based; details: 10 min pretreatment, 10 nM fMLF
# ERK1/2 [7] = assay: ERK1/2 phosphorylation in FPR1-RBL cells; assay type: cell-based, rat; details: FPR1-RBL cells (Figure 5B; text prints FPR1-HL60), 20 nM fMLF
# FPR2 [8] = target: T2, FPR2 (Homo sapiens, UniProt P25090); assay: Ca2+ mobilization in FPR2-HL60 cells
# T2 sequence (P25090 1-351): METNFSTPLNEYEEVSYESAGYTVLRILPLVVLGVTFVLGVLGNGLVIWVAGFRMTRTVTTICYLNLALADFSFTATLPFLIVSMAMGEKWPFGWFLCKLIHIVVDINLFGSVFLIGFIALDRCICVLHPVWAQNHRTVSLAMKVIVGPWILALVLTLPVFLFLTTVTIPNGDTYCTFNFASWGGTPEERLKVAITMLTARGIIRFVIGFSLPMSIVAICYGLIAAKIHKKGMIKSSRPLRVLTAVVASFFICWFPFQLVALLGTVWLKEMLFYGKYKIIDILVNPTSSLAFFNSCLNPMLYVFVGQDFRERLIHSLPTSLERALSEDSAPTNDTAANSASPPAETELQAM
# FPR2 [9] = target: T2, FPR2; assay: WKYMVM-induced Ca2+ flux in human neutrophils
IC50 (FPR1 [1]) [µM],IC50 (human neutrophils [2]) [µM],Activity class (FPR1 [3]),IC50 (human neutrophils [4]) [µM],FPR1 antagonist activity (FPR1 [3]),IC50 (FPR2 [8]) [µM],IC50 (FPR2 [9]) [µM],Structure (SMILES),Inhibition of fMLF-induced phosphorylation of ERK1/2 (ERK1/2 [5]),Inhibition of fMLF-induced ERK phosphorylation (ERK1/2 [5]),Inhibition of fMLF-induced phosphorylation of ERK1/2 (ERK1/2 [6]),Inhibition of fMLF-induced ERK1/2 phosphorylation (ERK1/2 [7])
10.7 ± 2.5,6.3 ± 2.2,Active,2.9 ± 1.1,–,–,–,"CCCN1C(=O)C(O)=C(C(=O)c2ccccc2)C1c1cc(OC)ccc1OC (centres unmarked) [Compound 4, 4-benzoyl-5-(2,5-dimethoxyphenyl)-3-hydroxy-1-propyl-2,5-dihydro-1H-pyrrol-2-one]",–,–,–,–
26.7 ± 4.6,21.3 ± 7.6,Active,25.8 ± 3.2,–,–,–,"CCCCN1C(=O)C(O)=C(C(=O)c2ccc(OC)cc2)C1c1ccc(C)cc1 (centres unmarked) [Compound 5, 1-butyl-3-hydroxy-4-(4-methoxybenzoyl)-5-(4-methylphenyl)-2,5-dihydro-1H-pyrrol-2-one]",–,–,–,–
12.4 ± 3.2,36.3 ± 4,–,–,–,–,–,"COc1ccccc1C1C(C(=O)c2ccc(C)cc2)=C(O)C(=O)N1CC(C)O (centres unmarked) [Compound 6, 3-hydroxy-1-(2-hydroxypropyl)-5-(2-methoxyphenyl)-4-(4-methylbenzoyl)-2,5-dihydro-1H-pyrrol-2-one]",–,–,–,–
4.8 ± 0.5,4.2 ± 1.3,Active,1.6 ± 0.6,–,–,–,"CCCCCCN1C(=O)C(O)=C(C(=O)c2ccccc2)C1c1ccc(O)c(OC)c1 (centres unmarked) [Compound 14, 4-benzoyl-1-hexyl-3-hydroxy-5-(4-hydroxy-3-methoxyphenyl)-2,5-dihydro-1H-pyrrol-2-one]",effectively inhibited,inhibited,effectively inhibited,inhibited
3.8 ± 1.8,12.8 ± 4.8,Active,–,highly active FPR1 antagonists,6.5 ± 0.9,1.7 ± 0.1,"CCCCCCN1C(=O)C(O)=C(C(=O)c2ccc(C)cc2)C1c1ccc(OC)cc1OC (centres unmarked) [Compound 15, 5-(2,4-dimethoxyphenyl)-1-hexyl-3-hydroxy-4-(4-methylbenzoyl)-2,5-dihydro-1H-pyrrol-2-one]",–,inhibited,–,–
6.7 ± 0.2,2.2 ± 1.2,Active,1.1 ± 0.2,–,–,–,"COCCN1C(=O)C(O)=C(C(=O)c2ccccc2)C1c1cc(OC)ccc1OC (centres unmarked) [Compound 17, 4-benzoyl-5-(2,5-dimethoxyphenyl)-3-hydroxy-1-(2-methoxyethyl)-2,5-dihydro-1H-pyrrol-2-one]",effectively inhibited,inhibited,effectively inhibited,inhibited
5.2 ± 1.4,12.4 ± 4.2,Active,13.3 ± 2.7,highly active FPR1 antagonists,–,–,"COCCN1C(=O)C(O)=C(C(=O)c2ccc(C)cc2)C1c1cc(OC)ccc1OC (centres unmarked) [Compound 18, 5-(2,5-dimethoxyphenyl)-3-hydroxy-1-(2-methoxyethyl)-4-(4-methylbenzoyl)-2,5-dihydro-1H-pyrrol-2-one]",–,–,–,–
